Experimental findings from US20240374546A1, “USES AND METHODS FOR PROMOTING INCREASED MITOCHONDRIAL MASS AND FUNCTION” (Brightseed, Inc., priority 2022, published 2024) are described below.

The subject of one data set is Sirtuin3 mRNA. The data set can be described thus: qPCR primary human hepatocytes, Sirtuin3 mRNA. Type of data set: cell-based. The following applies: NCT 5, 15, 40 μM. Here is the method:
Experiments with primary human hepatocytes were performed by CN-Bio (Cambridge, UK). Briefly, primary human hepatocytes (PHHs), human Kupffer cells (HKs) and human stellate cells (HSCs) were seeded onto CN-Bio's PhysioMimix LC12 MPS culture plates at 6×10^5 cells for PHHs and 6×10^4 cells for HKs and HSCs in 1.6 ml of CN-Bio's HEP-lean media with 5% FCS. Throughout the experiment the cells were maintained at a flow rate of 1 μl/s. After 24 hours (Day 1) of seeding, the media was changed to HEP-lean media and the cells were incubated until day 4 to allow the cells to form microtissues. At day 4 post seeding, media was changed to HEP-fat media and treated with DMSO or NCT (5, 15, 40 μM). Media was replaced on days 6 and 8. Cells were harvested on day 10 for RNA extraction and culture media was collected for ELISA analysis.
Total RNA was isolated from liver tissues and primary human hepatocytes using Trizol (Invitrogen). cDNA was amplified using 3 μg of total RNA using qScript cDNA SuperMix (Quanta BioSciences, Beverly, MA, USA). Quantitative real time PCR (RT-PCR) analysis was performed using SYBR® Select Master Mix (Applied Biosystems) and an ABI 7900HT thermal cycler (Applied Biosystems, Thermo Fisher Scientific). Ct values were normalized to 18s rRNA and are expressed as fold change over samples from mice fed NC or cultured human hepatocytes without NCT.

Another data set deals with PPARGC1A (PGC1α) mRNA. The data set can be described thus: RNA-seq of livers of mice treated for 2 weeks with NCT. It counts as in vivo, mouse. The note with it: livers of mice treated for 2 weeks (GEO 174848). An excerpt: The ability of NCT to increase mitochondrial mass raised the question of the mechanism by which that occurred. […] PPARGC1A plays an important role in mitochondrial biogenesis but is not known to be regulated by HNF4α. […]

Regarding `O=C(/C=C/c1ccc(O)c(O)c1)NCCc1ccc(O)cc1` [NCT, N-transcaffeoyltyramine], in the data set with Sirtuin3 mRNA, the “Sirtuin3 mRNA in primary human hepatocytes” value was “significant effect”. Moreover, the “increase in PPARGC1A (PGC1α) mRNA” value in the data set on PPARGC1A (PGC1α) mRNA is on record as “approximately 6 fold”.
